Experimental data reported in patent publication US7977330B2, “Salts and crystal modifications thereof” (Novartis AG, priority 2006, dated 2011).

Assay: solubility in aqueous media
Assay type: physicochemical
Details: qualitative statement

| SMILES | solubility in aqueous media |
| --- | --- |
| O.O=C(Nc1ccccc1F)NC1N=C(c2ccccc2)c2ccccc2NC1=O.O=S(=O)(O)c1ccccc1 (centres unmarked) [RSV604 Besylate Monohydrate Salt, 1-(2-Fluoro-phenyl)-3-(2-oxo-5-phenyl-2,3-dihydro-1H-benzo[e][1,4]diazepin-3-yl)-urea besylate monohydrate] | particularly good solubility properties |
| O=C(Nc1ccccc1F)NC1N=C(c2ccccc2)c2ccccc2NC1=O (centres unmarked) [RSV604 free base, 1-(2-Fluoro-phenyl)-3-(2-oxo-5-phenyl-2,3-dihydro-1H-benzo[e][1,4]diazepin-3-yl)-urea] | low solubility |
